Patent US20090130707A1, “Methods of reducing the inhibitory effect of a redox active metal ion on the enzymatic hydrolysis of cellulosic material” (priority 2007, published 2009)

How the values were obtained:
[1] = test system: Cellulolytic Enzyme Composition #1; experiment: mini-scale PCS hydrolysis by Cellulolytic Enzyme Composition #1; type: biochemical, Trichoderma reesei; settings: PCS hydrolysis (FIGS. 23A-23D)
Procedure: (§1) The effect of various salts (FeSO4, FeCl2, NaCl, Na2SO4, MnSO4, MnCl2) was determined in the hydrolysis of PCS by Cellulolytic Enzyme Composition #2. The PCS hydrolysis was performed in duplicate in capped 1.7 ml EPPENDORF® tubes (“mini-scale”) containing 1 ml suspensions of 43.4 g of PCS (dry weight) per liter, 10 mM salts in 50 mM sodium acetate pH 5. Cellulolytic Enzyme Composition #2 was added at 0.25 g per liter. Reactions without the addition of the salt served as controls. The capped tubes were incubated at 50° C. in an INNOVA® 4080 incubator shaker (New Brunswick Scientific Co., Inc., Edison, N.J., USA) at 150 rpm.
(§2) Aliquots of the suspensions, sampled over time, were filtered by centrifugation using a 0.45 μm MULTISCREEN® HV membrane (Millipore, Billerica, Mass., USA) at 2000 rpm for 15 minutes using a SORVALL® RT7 centrifuge (Thermo Fisher Scientific, Waltham, Mass., USA). When not used immediately, the filtered sugary aliquots were frozen at −20° C. Sugar concentrations of the samples diluted in 0.005 M H2SO4 were measured after elution from a 4.6×250 mm AMINEX® HPX-87H column (Bio-Rad, Hercules, Calif., USA) by 0.005 M H2SO4 at a flow rate of 0.4 ml/minute at 65° C. with quantitation by integration of glucose and cellobiose using refractive index detection (CHEMSTATION®, AGILENT® 1100 HPLC, Agilent Technologies, Santa Clara, Calif., USA) calibrated with standards of glucose and cellobiose. The resultant equivalents were used to calculate the percentage of cellulose conversion for each reaction.
Example 30 was repeated with both Cellulolytic Enzyme Composition #1 and Cellulolytic Enzyme Composition #2. Soluble reducing sugars were measured by HPLC as described in Example 30. Reactions without the addition of FeSO4 served as controls.
The hydrolysis was performed in a series of duplicate “mini-scale” hydrolysis reactions according to the procedure described in Example 30.

[2] = Hydrolysis of PCS stripped with chelator; type: biochemical; settings: PCS (43 g per liter) stripped overnight with 10 mM chelator, then washed
Procedure: To test whether there was any significant amount of (accessible) Fe(II) in PCS, and whether stripping it with a chelator would improve PCS hydrolysis, washed PCS (43 g per liter) was “stripped” with 10 mM 2,2′-bipyridyl, 1,10-phenanthroline, or 1,7-phenanthroline. After overnight pre-incubation, the PCS was extensively washed to remove the chelator. The hydrolysis was performed in a series of duplicate “mini-scale” hydrolysis reactions performed according to the procedure described in Example 30.

[3] = test system: Cellulolytic Enzyme Composition #1; experiment: mini-scale AVICEL hydrolysis by Cellulolytic Enzyme Composition #1; type: biochemical, Trichoderma reesei; settings: 3 mM; 23 g AVICEL and 0.25 g enzyme per liter
Procedure: FIGS. 19A, 19B, 19C, and 19D show the effective inhibitory concentration range of Fe(II) on the hydrolysis of AVICEL® by Cellulolytic Enzyme Composition #1 (A and B) and on the hydrolysis of PASC by Cellulolytic Enzyme Composition #1 (C and D). The AVICEL® hydrolysis was conducted with […] of AVICEL® and 0.25 g of Cellulolytic Enzyme Composition #1 per liter of 50 mM sodium acetate pH 5 at 50° C. FeSO4 (mM): (∘) 0, (+) 1, (Δ) 3, (⋄) 5, (□) 10. Dixon plot linear regression line: 1/Rate=(0.035±0.003)[Fe(II)]+(0.043±0.015), r^2=0.978. Rate was estimated from the hydrolysis difference (%) at 24 and 6 hours. The PASC hydrolysis was conducted with 2 g of PASC and 50 mg of Cellulolytic Enzyme Composition #1 per liter of 50 mM sodium acetate pH 5 at 50° C. Dixon plot linear regression line: 1/Rate=(0.0042±0.0003)[Fe(II)]+(0.059±0.002), r^2=0.994. Rates were estimated from the hydrolysis difference (%) at 7 hours.
as §1
In one series of “mini-scale” hydrolysis reactions performed according to the procedure described in Example 30, the effect of 1 mM to 10 mM FeSO4 was evaluated in the hydrolysis of AVICEL® by Cellulolytic Enzyme Composition #1.

[4] = test system: Cellulolytic Enzyme Composition #2; experiment: mini-scale PCS hydrolysis by Cellulolytic Enzyme Composition #2; type: biochemical, Trichoderma reesei; settings: 10 mM Fe(II) (FIG. 17B)
Procedure: Corn stover was pretreated at the U.S. Department of Energy National Renewable Energy Laboratory (NREL), […], Colo., USA, using dilute sulfuric acid. The following conditions were used for the pretreatment: 1.4 wt % sulfuric acid at 195° C. for 4.5 minutes. According to limit digestion with excess cellulase enzymes, the water-insoluble solids in the pretreated corn stover (PCS) contained 59.5% cellulose. Prior to use, the PCS was washed with a large volume of deionized water until soluble acid and sugars were removed. The dry weight of the water-washed PCS was 19.16%.
The effect of various salts (FeSO4, FeCl2, NaCl, Na2SO4, MnSO4, MnCl2) was determined in the hydrolysis of PCS by Cellulolytic Enzyme Composition #2. […] Cellulolytic Enzyme Composition #2 was added at 0.25 g per liter. Reactions without the addition of the salt served as controls. The capped tubes were incubated at 50° C. in an INNOVA® 4080 incubator shaker (New Brunswick Scientific Co., Inc., Edison, N.J., USA) at 150 rpm.
as §2
The degree of cellulose conversion to glucose plus cellobiose (% conversion) was calculated using the following equation:
% Conversion=(glucose+cellobiose×1.053)(mg/ml)×100×162/cellulose(mg/ml)×180)=(glucose+cellobiose×1.053)(mg/ml)×100/(cellulose(mg/ml)×1.111)
In this equation the factor 1.111 reflects the weight gain in converting cellulose to glucose, and the factor 1.053 reflects the weight gain in converting cellobiose to glucose. Cellulose in PCS was determined by a limit digest of PCS to release glucose and cellobiose.

[5] = target: T1, Trichoderma reesei Cel7A cellobiohydrolase I (Trichoderma reesei, UniProt P62694); experiment: PASC hydrolysis by Cel7A cellobiohydrolase I; type: biochemical
T1 construct: made in house

[6] = target: T2, Aspergillus oryzae CEL3A beta-glucosidase (Aspergillus oryzae, UniProt Q2UUD6); experiment: Cellobiose hydrolysis by CEL3A beta-glucosidase; type: biochemical
T2 construct: made in house
Procedure: The Fe(II) inhibition of Aspergillus oryzae CEL3A beta-glucosidase was measured similarly, except cellobiose replaced PASC. The initial rate vs Fe(II) concentration plots appeared as “mixed” type, whose complexity prevented extraction of Kis.

[7] = test system: Cellulolytic Enzyme Composition #1; experiment: mini-plate-scale AVICEL hydrolysis by Cellulolytic Enzyme Composition #1; type: biochemical, Trichoderma reesei
Procedure: (§3) Various (biologically common) divalent metal cations with variable ionic radii were tested in 2.8 ml Deep Well Microplates (VWR International, West Chester, Pa., USA) (“mini-plate-scale”) containing 1 ml suspensions of 25 g of AVICEL® per liter in 50 mM sodium acetate pH 5 at 50° C. Cellulolytic Enzyme Composition #1 was added at 0.25 g per liter for each hydrolysis. The mini-plates were sealed at 160° C. for 2 seconds using an ABGENE® ALPS 300™ sealer (ABgene, Rochester, N.Y., USA). The sealed mini-plates were incubated at 50° C. in an INNOVA® 4080 incubator shaker at 150 rpm. Soluble reducing sugars were measured by HPLC as described in Example 30.
Iron-chelator complexes of variable size or redox property were tested for their ability to inhibit enzymatic hydrolysis of cellulose. […]

[8] = target: T3, Trichoderma reesei Cel7B endoglucanase I (Trichoderma reesei, UniProt P07981); experiment: PASC hydrolysis by Cel7B endoglucanase I; type: biochemical
T3 construct: made in house; host or cells: Aspergillus oryzae JaL250

[9] = target: T4, Trichoderma reesei Cel5A endoglucanase II (Trichoderma reesei, UniProt P07982); experiment: PASC hydrolysis by Cel5A endoglucanase II; type: biochemical
T4 construct: made in house; host or cells: Aspergillus oryzae JaL250 (transformant JaL250AlLo27)

[10] = ionic radii in crystals, 6-ligand coordination; cited from earlier work
[11] = target: Cellulolytic Enzyme Composition #1; experiment: mini-plate-scale PASC hydrolysis by Cellulolytic Enzyme Composition #1; type: biochemical, Trichoderma reesei; settings: PASC; Enzymes: Cellulolytic Enzyme Composition #1; read-out: I50 (mean ± SD)
Procedure: as §3
In one series of “mini-scale” hydrolysis reactions performed according to the procedure described in Example 30, the effect of 1 mM to 10 mM FeSO4 was evaluated in the hydrolysis of AVICEL® by Cellulolytic Enzyme Composition #1. In a series of “mini-plate-scale” hydrolysis reactions performed according to the procedure described in Example 32, the effect of 1 mM to 10 mM FeSO4 was evaluated in the hydrolysis of PASC by Cellulolytic Enzyme Composition #1, except 2 g of PASC and 0.05 g Cellulolytic Enzyme Composition #1 per liter of 50 mM sodium acetate pH 5 were used.
The above study was extended to a range of concentration of Fe(II) and cellulose. In a series of “mini-plate-scale” hydrolysis reactions performed according to the procedure described in Example 32, except that 0.1 to 10 mM FeSO4, 0.6 to 4 g of PASC and 0.01 g of Cellulolytic Enzyme Composition #1 per liter of 50 mM sodium acetate pH 5 were used.

[12] = 0-15 mM FeSO4, 0.6-4 g PASC per liter

T2 sequence (Q2UUD6 20-861): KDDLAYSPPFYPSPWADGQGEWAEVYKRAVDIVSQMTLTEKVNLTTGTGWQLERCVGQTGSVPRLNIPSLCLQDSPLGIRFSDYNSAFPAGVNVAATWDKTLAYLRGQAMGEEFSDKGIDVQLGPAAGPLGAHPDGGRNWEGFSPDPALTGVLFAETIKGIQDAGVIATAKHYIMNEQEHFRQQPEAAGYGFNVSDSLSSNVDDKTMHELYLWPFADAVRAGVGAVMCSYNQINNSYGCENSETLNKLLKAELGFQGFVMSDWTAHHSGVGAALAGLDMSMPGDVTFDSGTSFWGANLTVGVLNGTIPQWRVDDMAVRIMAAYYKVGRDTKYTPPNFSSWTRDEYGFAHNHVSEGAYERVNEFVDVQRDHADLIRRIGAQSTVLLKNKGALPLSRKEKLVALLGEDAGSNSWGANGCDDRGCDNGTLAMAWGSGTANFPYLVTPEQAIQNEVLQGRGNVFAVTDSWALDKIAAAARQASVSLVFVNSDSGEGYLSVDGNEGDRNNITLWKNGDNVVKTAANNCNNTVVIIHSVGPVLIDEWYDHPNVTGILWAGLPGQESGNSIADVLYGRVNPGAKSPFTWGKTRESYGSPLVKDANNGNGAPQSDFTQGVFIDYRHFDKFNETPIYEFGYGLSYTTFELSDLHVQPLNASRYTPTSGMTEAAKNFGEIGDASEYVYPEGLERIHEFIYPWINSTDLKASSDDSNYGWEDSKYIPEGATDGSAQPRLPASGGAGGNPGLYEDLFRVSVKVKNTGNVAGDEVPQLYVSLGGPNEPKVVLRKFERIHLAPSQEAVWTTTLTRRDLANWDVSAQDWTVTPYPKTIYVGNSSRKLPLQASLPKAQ
T1 sequence (P62694 18-513): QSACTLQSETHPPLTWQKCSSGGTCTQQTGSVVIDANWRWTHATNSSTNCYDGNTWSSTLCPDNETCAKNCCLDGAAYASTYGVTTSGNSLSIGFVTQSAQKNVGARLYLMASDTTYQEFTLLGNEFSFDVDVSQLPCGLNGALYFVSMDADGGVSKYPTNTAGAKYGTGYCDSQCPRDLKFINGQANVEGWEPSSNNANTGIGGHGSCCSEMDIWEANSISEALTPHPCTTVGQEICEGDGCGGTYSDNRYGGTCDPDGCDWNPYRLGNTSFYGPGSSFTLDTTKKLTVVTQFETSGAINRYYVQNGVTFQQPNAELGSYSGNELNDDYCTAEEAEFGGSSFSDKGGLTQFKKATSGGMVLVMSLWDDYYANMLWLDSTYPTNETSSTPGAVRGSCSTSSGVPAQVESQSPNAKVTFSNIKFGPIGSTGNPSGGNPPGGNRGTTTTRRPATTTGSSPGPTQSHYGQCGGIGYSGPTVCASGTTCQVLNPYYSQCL
T4 sequence (P07982 22-418): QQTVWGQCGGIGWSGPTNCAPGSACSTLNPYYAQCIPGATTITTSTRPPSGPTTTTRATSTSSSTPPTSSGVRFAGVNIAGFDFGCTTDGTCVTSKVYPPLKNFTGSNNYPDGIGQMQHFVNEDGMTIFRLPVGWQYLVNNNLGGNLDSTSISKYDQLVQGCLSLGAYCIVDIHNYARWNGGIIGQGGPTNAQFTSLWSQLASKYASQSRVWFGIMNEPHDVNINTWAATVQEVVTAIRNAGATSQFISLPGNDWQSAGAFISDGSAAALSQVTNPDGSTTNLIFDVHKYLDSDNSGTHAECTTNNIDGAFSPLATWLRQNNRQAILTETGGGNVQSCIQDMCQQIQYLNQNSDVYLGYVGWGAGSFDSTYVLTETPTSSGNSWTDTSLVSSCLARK
T3 sequence (P07981 23-459): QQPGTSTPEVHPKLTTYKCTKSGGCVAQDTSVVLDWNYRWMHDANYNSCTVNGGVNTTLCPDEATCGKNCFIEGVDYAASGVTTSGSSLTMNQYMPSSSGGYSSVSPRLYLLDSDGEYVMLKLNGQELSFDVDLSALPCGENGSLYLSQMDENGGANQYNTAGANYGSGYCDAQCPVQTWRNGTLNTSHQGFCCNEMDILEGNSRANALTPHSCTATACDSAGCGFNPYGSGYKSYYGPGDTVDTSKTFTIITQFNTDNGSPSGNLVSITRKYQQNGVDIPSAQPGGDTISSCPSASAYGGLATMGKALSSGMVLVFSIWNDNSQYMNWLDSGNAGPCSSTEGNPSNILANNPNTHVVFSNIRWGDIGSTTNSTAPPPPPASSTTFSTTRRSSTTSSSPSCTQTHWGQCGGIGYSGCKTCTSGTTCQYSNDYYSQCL

Row | SMILES | Effect of chelator on enzyme in the absence of FeSO4 [1] | increase in hydrolysis extent [2] | Effect on AVICEL hydrolysis [3] | activity loss [4] | Type of initial rate vs Fe(II) concentration plots [5, 12] | IC50 ([5]; PASC, CEL7A CBHI, 40 mg enzyme per liter, read-out: I50 (mean ± SD)) | Type of initial rate vs Fe(II) concentration plots ([6]; 0-15 mM FeSO4, cellobiose replaced PASC) | IC50 ([6]; CEL3A BG, on cellobiose hydrolysis, read-out: I50 (mean ± SD)) | Effect on enzymatic cellulolysis: loss in initial rate ([7]; 10 mM, 25 g AVICEL and 0.25 g enzyme per liter, pH 5, 50° C.) | Effect on enzymatic cellulolysis: loss in extended hydrolysis extent ([7]; 10 mM, 25 g AVICEL and 0.25 g enzyme per liter, pH 5, 50° C., after 4 days) | IC50 ([7]; Avicel, Enzymes: Cellulolytic Enzyme Composition #1, read-out: I50 (mean ± SD)) | Type of initial rate vs Fe(II) concentration plots [8, 12] | IC50 ([8]; PASC, CEL7B EGI, 40 mg enzyme per liter, read-out: I50 (mean ± SD)) | Type of initial rate vs Fe(II) concentration plots [9, 12] | IC50 ([9]; PASC, CEL5A EGII, 40 mg enzyme per liter, read-out: I50 (mean ± SD)) | Radius [10] | IC50 [11]
1 | c1ccc(-c2ccccn2)nc1 [2,2′-bipyridyl] | significant inhibition | approximately 4% | No significant inhibition | – | – | – | – | – | – | – | – | – | – | – | – | – | –
2 | [Fe+2] [Fe(II)] | – | – | – | approximately 70% | mixed | 7 ± 2 mM | mixed | 13 ± 2 mM | ~70% loss in initial rate, ~70% loss in extended hydrolysis extent | ~70% loss in initial rate, ~70% loss in extended hydrolysis extent | 2 ± 1 mM | mixed | 1.8 ± 0.2 mM | mixed | 12 ± 4 mM | 0.61 Å | 14 ± 1 mM
